Numbers after ± are expanded uncertainties.
Conditions: Liquid; for mass density: Buoyancy - hydrostatic balance with magnetic suspension - one sinker

C=CCCCCC [1-heptene]
Conditions	mass density [kg/m3]	viscosity [mPa·s]
298.15 K, 98 kPa	694.51 ± 11	0.362 ± 0.012
298.15 K, 24510 kPa	718.23 ± 11	0.451 ± 0.015
298.15 K, 49030 kPa	734.7 ± 12	0.544 ± 0.018
298.15 K, 98060 kPa	765.58 ± 12	0.739 ± 0.024
298.15 K, 147100 kPa	783.57 ± 12	0.942 ± 0.031
298.15 K, 196130 kPa	800.85 ± 13	1.226 ± 0.04
298.15 K, 245160 kPa	816.79 ± 13	1.499 ± 0.049
303.15 K, 98 kPa	689.57 ± 11	0.346 ± 0.012
303.15 K, 24510 kPa	715 ± 11	0.431 ± 0.014
303.15 K, 49030 kPa	733.1 ± 12	0.52 ± 0.017
303.15 K, 98060 kPa	761.82 ± 12	0.706 ± 0.023
303.15 K, 147100 kPa	780.46 ± 12	0.903 ± 0.03
303.15 K, 196130 kPa	797.46 ± 13	1.162 ± 0.038
303.15 K, 245160 kPa	815.3 ± 13	1.429 ± 0.047
312.83 K, 98 kPa	680.92 ± 11	0.314 ± 0.011
322.39 K, 98 kPa	672.17 ± 11	0.288 ± 0.01
327.47 K, 24510 kPa	697.97 ± 11	0.351 ± 0.012
327.48 K, 98060 kPa	746.71 ± 12	0.575 ± 0.019
327.49 K, 98 kPa	668.07 ± 11	0.278 ± 0.009
327.49 K, 49030 kPa	718.4 ± 11	0.429 ± 0.014
327.63 K, 147100 kPa	767.87 ± 12	0.741 ± 0.024
327.63 K, 196130 kPa	786.42 ± 13	0.925 ± 0.03
327.67 K, 245160 kPa	805.58 ± 13	1.136 ± 0.037
340.21 K, 98 kPa	655.95 ± 10	0.251 ± 0.008
354.73 K, 98 kPa	643.5 ± 10	0.224 ± 0.008
359.63 K, 245160 kPa	791.61 ± 13	0.883 ± 0.029
359.74 K, 147100 kPa	750.76 ± 12	0.587 ± 0.019
359.75 K, 196130 kPa	773.85 ± 12	0.726 ± 0.024
359.87 K, 98060 kPa	730.37 ± 12	0.457 ± 0.015
359.96 K, 49030 kPa	699.31 ± 11	0.34 ± 0.011
360.03 K, 98 kPa	638.93 ± 10	0.215 ± 0.007
360.06 K, 24510 kPa	672.86 ± 11	0.278 ± 0.009
392.4 K, 245160 kPa	776.73 ± 12	0.709 ± 0.023
392.46 K, 196130 kPa	758.9 ± 12	0.591 ± 0.02
392.61 K, 147100 kPa	734.09 ± 12	0.48 ± 0.016
392.68 K, 49030 kPa	676.29 ± 11	0.277 ± 0.009
392.74 K, 98060 kPa	714.89 ± 11	0.377 ± 0.013
392.79 K, 24510 kPa	646.48 ± 10	0.226 ± 0.008
423.82 K, 196130 kPa	745.35 ± 12	0.489 ± 0.016
424.04 K, 147100 kPa	717.45 ± 11	0.4 ± 0.013
424.07 K, 245160 kPa	760.78 ± 12	0.574 ± 0.019
424.11 K, 24510 kPa	619.97 ± 9.9	0.182 ± 0.006
424.17 K, 49030 kPa	653.79 ± 10	0.226 ± 0.008
424.17 K, 98060 kPa	697.03 ± 11	0.311 ± 0.01
452.22 K, 196130 kPa	733.49 ± 12	0.434 ± 0.014
452.25 K, 98060 kPa	676.86 ± 11	0.28 ± 0.009
452.27 K, 245160 kPa	750.38 ± 12	0.503 ± 0.017
452.28 K, 147100 kPa	702.95 ± 11	0.355 ± 0.012
452.34 K, 49030 kPa	628.89 ± 10	0.198 ± 0.007
452.35 K, 24510 kPa	595.84 ± 9.5	0.16 ± 0.006
473.28 K, 196130 kPa	723.12 ± 12	0.407 ± 0.014
473.33 K, 147100 kPa	692.3 ± 11	0.333 ± 0.011
473.35 K, 245160 kPa	737.15 ± 12	0.47 ± 0.016
473.47 K, 98060 kPa	665.45 ± 11	0.262 ± 0.009
473.56 K, 49030 kPa	612.5 ± 9.8	0.183 ± 0.006
473.7 K, 24510 kPa	578.48 ± 9.2	0.148 ± 0.005

Reference: the NIST ThermoML archive (doi:10.1021/je401015e)
